One test has as its system MOLM-13 cells. Kind of test: MOLM-13 xenograft survival study in NCG mice. It counts as in vivo. As to conditions: Cpd4 10 mg/kg PO TIWK (MWF); Daratumumab 1 µg/g IP TF; Isatuximab 2.5 mg/kg IP TF; start 4 days post engraftment; vehicle 16.5. The procedure:
Xenograft Model Methodology. Animal studies were performed at Charles River Laboratories (CRL). 1E5 MOLM-13 cells were engrafted intravenously into NCG mice (males, 8-12-week old). 4 days post engraftment, mice were randomly enrolled to receive: • 1. Vehicle • 2. 10 mg/kg Cpd 53 orally (daily) • 3. 10 mg/kg Cpd 53 orally (TIWK, Monday, Wednesday, and Friday) • 4. 4 mg/kg BAY2402234 orally (daily) • 5. 1 µg/g Daratumumab via intraperitoneal injection (BIWK, Tuesday and Friday) • 6. 2.5 µg/g Isatuximab via intraperitoneal injection (BIWK, Tuesday and Friday) • 7. Cpd4 (daily) and Daratumumab (BIWK) combination • 8. Cpd4 (TIWK) and Daratumumab (BIWK) combination • 9. BAY2402234 (daily) and Daratumumab (BIWK) combination • 10. Cpd4 (daily) and Isatuximab (BIWK) combination • 11. […]
Procedures used in the study are as follows: • Mice with 1×10^5 MOLM-13 tumor cells in 0% Matrigel iv tail vein. • Study start is 4 days post implant • Animals were randomized into treatment groups based on Day 1 bodyweight. • Cell Injection Volume was 0.2 mL/mouse. • Age at Start Date: 8 to 12 weeks. • Body Weight: qd x 5 then biwk to end • Any individual animal with a single observation of > than 30% body weight loss or three consecutive measurements of >25% body weight loss was euthanized. • Any group with a mean body weight loss of >20 % or >10% mortality ceased dosing. […] Animals were to be monitored individually. […]

Test [1] concerns MV-411 cells with wild type (WT) p53. Kind of test: CD38 surface expression by flow cytometry in MV-411 cells with wild type p53. It counts as cell-based. As to conditions: 1 µM, 72 hours, versus vehicle. The procedure: (§1) FIGS. 1A-1B show representative data for the effect of a representative DHODH inhibitor on the expression of CD38 in AML cells. Briefly, MV-411 cells with wild type (WT) p53 (FIG. 1A) or mutant p53 (FIG. 1B) were treated with brequinar (BRQ, 1 µM), or Cpd3 (1 µM) for 72 hours, and then the CD38 surface expression was determined by flow cytometry. The CD38 mean fluorescent intensity (MFI) is calculated based on the X-median expression.
(§2) MV-411 cells with wild type (WT) p53 or mutant p53 were treated with brequinar (BRQ, 1 µM), or Cpd3 (1 µM) for 72 hours. CD38 surface expression was determined by flow cytometry. The CD38 mean fluorescent intensity (MFI) is calculated based on the X-median expression. FIG. 1A show data obtained with MV-411 having wild type p53. […] FIG. 1B show the results obtained with MV-411 having a mutant p53.

Test [2] relates to MV-411 cells with mutant p53. Kind of test: CD38 surface expression by flow cytometry in MV-411 cells with mutant p53. Format: cell-based. As to conditions: 1 µM, 72 hours, versus vehicle. The procedure: as §1, §2
On the technique in general: In flow cytometry, cells or beads pass a laser one at a time.

Another test has as its system MV4-11 cells. Kind of test: MV4-11 xenograft (secondary engraftment) survival study in NSG mice. As to conditions: Cpd3 50 mg/kg PO MWF, daratumumab 1 µg/g IP TF. It counts as in vivo. On the procedure: FIGS. 2A-2D show representative data for the effect of a representative DHODH inhibitor in combination with an anti-CD38 antibody in a mouse xenograft model. FIG. 2A show representative data for percent survival versus time post-engraftment. Briefly, NSG mice were injected with 0.3 × 10^6 spleen cells from an MV4-11 engrafted leukemic donor mouse (N=7 per group). Starting at day 7 post-engraftment, mice were treated with vehicle; 50 mg/kg Cpd3 (PO; indicated as “Cpd3 PO” in the figure) on a dosing schedule of Monday/Wednesday/Friday (MWF); 1 µg/g daratumumab (IP; indicated as “Dara IP” in the figure) on a dosing schedule of Tuesday and Friday (TF); or Cpd3 and daratumumab combination (indicated as “Cpd3+Dara” in the figure). The Cpd3 and daratumumab combination treatment comprised dosing with 50 mg/kg Cpd3 on a dosing scheduled of Monday/Wednesday/Friday and dosing with 1 µg/g daratumumab on a dosing schedule of Tuesday and Friday (TF). Mice were monitored until reaching early/end removal criteria (ERC) and overall survival was calculated using Kapler Meyer analysis. The arrow indicates start of treatment. […] The treatment type is indicated below each photographic image as outlined for FIG. 2A. […] Weight loss is typically associated with leukemia progression and has also been associated with DHODH inhibitor treatment. […] Briefly, Spleens were isolated from the animals from each treatment group as they reached ERC. The percentage of human CD45+ cells in the spleen were determined by flow cytometry.
Xenograft Model Methodology. Animal studies were approved by the Institutional Laboratory Animal Care and Use Committee (IACUC) at the Ohio State University. 1E7 M4-11 cells were engrafted intravenously into NSG mice (males, 12-week old, strain NOD.Cg-Prkdcscid ll2rgtm1Wjl/SzJ). These mice were allowed to develop a fatal leukemia, at which point splenocytes containing leukemia cells were collected and cryopreserved. […] Overall survival was calculated using Kapler Meyer analysis. […]

The test system of test [3] is a variety of unrelated viruses. As to conditions: Harvey et al. (2009) Antiviral Res.; read-out: EC50, inhibition of virus replication in vitro; cited from earlier work.

Consider 4 compounds from patent publication US20230303710A1, “METHODS AND COMPOSITIONS FOR INHIBITION OF DIHYDROOROTATE DEHYDROGENASE IN COMBINATION WITH AN ANTI-CD38 THERAPEUTIC AGENT” (OHIO STATE INNOVATION FOUNDATION, priority 2019, published 2023).

What is called EC50 is the midpoint of the concentration-response curve.

In the case of `CCCCOc1cccc(-c2ccc(-c3cc(C(=O)O)c4cc(F)ccc4n3)cc2)c1` [Cpd4, 2-(3′-butoxy-[1,1′-biphenyl]-4-yl)-6-fluoroquinoline-4-carboxylic acid], the “Median survival” value in the test on MOLM-13 cells worked out at 43 days.

`CCOc1ccc(-c2ccc(-c3cc(C(=O)O)c4cc(F)ccc4n3)cc2)cc1` [Cpd3, 2-(4′-ethoxy-[1,1′-biphenyl]-4-yl)-6-fluoroquinoline-4-carboxylic acid]: the figures for the “CD38 surface expression (mean fluorescent intensity)” value in test [1] and in test [2] were “upregulated” and “highly upregulated”, respectively. Further, the “survival compared to the vehicle treatment control group / other treatment groups” value with MV4-11 cells (FIG. 2A) is recorded as “modest improvement in survival”. For the same compound, the “Estimated median survival time (days PE)” value in the test on MV4-11 cells (start day 7 post-engraftment, vehicle 35 days) is 42 days. In the test on MV4-11 cells (N=7 per group, start day 7 post-engraftment), the N died came to 7.

On to `Cc1c(-c2ccc(-c3ccccc3F)cc2)nc2ccc(F)cc2c1C(=O)O` [brequinar, reference compound], for which the figures for the “CD38 surface expression (mean fluorescent intensity)” value in test [1] and in test [2] were “upregulated” and “highly upregulated”, respectively.

As to `O=C(N[C@@H]1CCCc2c1[nH]c1ccc(Cl)cc21)c1ccccn1` [GSK983], the EC50 in test [3] is 5 to 20 nM.
